Experimental data as given in patent US7388096B2, “Crystalline forms of a factor Xa inhibitor” (Bristol-Myers Squibb Company, priority 2004, dated 2008).
Entries after “also recorded” stand apart in the source; their conditions may differ. One block for each molecule: values may come before it.

What was measured:
Format in all cases: physicochemical
[1] = accelerated stability studies (physical stability, XRPD of stressed samples); details: for physical stability in accelerated stability studies: 40° C./75% RH/Open/4 Weeks and 50° C./Closed/4 Weeks
Protocol: (§1) SSNMR and XRPD indexing studies have proven that Form N-3 is a single phase. No significant weight loss was observed up to about 250° C. in TGA analysis. […] Form N-3 has the tendency to form small primary particles (<10 μm) of the shape of needles or rods.
Form N-1 undergoes a solid-state transition at about 90° C. as evidenced by hot-stage microscopy studies and converts to Form N-2 at about 90° C. which is confirmed by […] studies. Thermal analysis by DSC (FIG. 8) and TGA show a small exotherm at about 113° C., which is attributed to the solid-state transition to Form N-2, followed by a melting endotherm at about 255 to about 259° C. similar to the melting range for Form N-2.
(§2) P-1 is a desolvated phase obtained by drying the initial material (potential solvates) crystallized from the reaction mixture. P-1 has never been observed in slurry, and therefore there is no evidence to support assignment of P-1 as a single and neat phase that is crystallized directly from the reaction mixture. […] P-1 can also convert to Form N-2 upon heating at 230° C. in solid state.

[2] = moisture sorption and desorption study; details: for hygroscopicity (in words): moisture sorption and desorption study
Protocol: as §1, §2

[3] = form conversion in slurry / relative thermodynamic stability of polymorphs
Protocol: as §1, §2
A Good Laboratory Practice batch (˜550 g) of Form N-3 has been manufactured successfully by converting P-1 material using a slurry method in acetone at about 50° C. Acetone slurries of Form P-1 spiked at about 50° C. with 1% water still yield Form N-3, but the slurries spiked with 5% and 10% water result in P-3 (solvated) material. […] The hemi sec BuOH solvate, form 0.5SBU-4, converts to form N-2 upon heating. […] Form N-1 also undergoes a solid state transition to Form N-2 upon heating at about 90 to 130° C. In addition, P-1 converts to potential solvate/hydrate forms by slurrying in different solvent systems, e.g., MeOH/EtOAc, DMF/H2O, DMSO/H2O, NMP/H2O at room temperature or at about 50° C.

physical stability in accelerated stability studies (XRPD assay) ([1]; stressed for 3 weeks, 40° C./75% RH/Open): physically unstable | hygroscopicity (in words) [2]: hygroscopic | weight gain on adsorption ([2]; to 90% RH): ~16% | form conversion in solvents ([3]; in solvents (e.g., acetone)): converts to Form N-3 | form conversion in slurry ([3]; slurry in different solvents (e.g., acetone, ACN, DMSO/MTBE) at about 50° C.): converts to Form N-3
SMILES: NC(=O)c1nn(-c2cccc(Cl)c2)c2c1CCN(c1ccc(-n3ccccc3=O)cc1)C2=O [Form P-1, 1-(3-chlorophenyl)-7-oxo-6-[4-(2-oxo-1(2H)pyridinyl)phenyl]-4,5,6,7-tetrahydro-1H-pyrazolo[3,4-c]pyridine-3-carboxamide]

physical stability in accelerated stability studies [1]: physically stable | hysteresis in moisture sorption/desorption ([2]; up to 95% RH at 25° C.): no hysteresis was observed | moisture sorption ([2]; up to 95% RH at 25° C.): 0.4% | relative thermodynamic stability of polymorphs ([3]; room temperature to 60° C., from slurry conversions): thermodynamically more stable polymorph
SMILES: NC(=O)c1nn(-c2cccc(Cl)c2)c2c1CCN(c1ccc(-n3ccccc3=O)cc1)C2=O [Form N-3, 1-(3-chlorophenyl)-7-oxo-6-[4-(2-oxo-1(2H)pyridinyl)phenyl]-4,5,6,7-tetrahydro-1H-pyrazolo[3,4-c]pyridine-3-carboxamide]
hygroscopicity (in words) [2]: nonhygroscopic; also recorded: non-hygroscopic | relative thermodynamic stability of polymorphs ([3]; 25° C. to 60° C.): thermodynamically more stable than polymorphs N-1 and N-2

physical stability in accelerated stability studies [1]: physically unstable | form conversion in slurry ([3]; slurry in acetone): converts to N-3 readily
SMILES: NC(=O)c1nn(-c2cccc(Cl)c2)c2c1CCN(c1ccc(-n3ccccc3=O)cc1)C2=O [Form N-1, 1-(3-chlorophenyl)-7-oxo-6-[4-(2-oxo-1(2H)pyridinyl)phenyl]-4,5,6,7-tetrahydro-1H-pyrazolo[3,4-c]pyridine-3-carboxamide]

physical stability in stability study ([1]; 40° C./75% RH/Open for 5 Weeks and 50° C./Closed for 4 Weeks): physically stable | moisture adsorption ([2]; at 90% RH at 25° C.): ~1.2% | hygroscopicity (in words) [2]: nonhygroscopic | form conversion in slurry ([3]; slurry at 25 and 60° C.): converts to N-3 | form conversion in slurry ([3]; slurry in acetone at RT or about 50° C.): converts to Form N-3 readily
SMILES: NC(=O)c1nn(-c2cccc(Cl)c2)c2c1CCN(c1ccc(-n3ccccc3=O)cc1)C2=O [Form N-2, 1-(3-chlorophenyl)-7-oxo-6-[4-(2-oxo-1(2H)pyridinyl)phenyl]-4,5,6,7-tetrahydro-1H-pyrazolo[3,4-c]pyridine-3-carboxamide]
relative thermodynamic stability of polymorphs ([3]; 25° C. to 60° C.): thermodynamically less stable than polymorph N-3
